According to PubChem BioAssay AID2060893 (Molecular Pharmacology Branch, DTP, NCI, 2025):
pIC50: −log10 of the molar value.

Test system: K86415-001-R-J1-PDC complex spheroids, viability
Experiment: Anticancer human tumor K86415-001-R-J1-PDC patient-derived lung adenocarcinoma cell line growth inhibition [RAS]
Conditions: for pIC50: curve of first compound; for viability, T/C: stronger effect = lower value
In short: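 Agents were tested in combination matrices in half-log decrements from a top concentration at or near clinical Cmax (10 microM if undetermined). Targets were multi-cell spheroids of tumour lines plus HUVEC and MSC stromal cells.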

[1] = second compound 0.00316 µM, first compound 0.0316 µM
[2] = second compound 0.00316 µM, first compound 0.1 µM
[3] = second compound 0.00316 µM, first compound 0.316 µM
[4] = second compound 0.00316 µM, first compound 1 µM
[5] = second compound 0.00316 µM, first compound 3.16 µM
[6] = second compound 0.00316 µM, first compound 10 µM
[7] = second compound 0.01 µM, first compound 0.0316 µM
[8] = second compound 0.01 µM, first compound 0.1 µM
[9] = second compound 0.01 µM, first compound 0.316 µM
[10] = second compound 0.01 µM, first compound 1 µM
[11] = second compound 0.01 µM, first compound 3.16 µM
[12] = second compound 0.01 µM, first compound 10 µM
[13] = second compound 0.0316 µM, first compound 0.0316 µM
[14] = second compound 0.0316 µM, first compound 0.1 µM
[15] = second compound 0.0316 µM, first compound 0.316 µM
[16] = second compound 0.0316 µM, first compound 1 µM
[17] = second compound 0.0316 µM, first compound 3.16 µM
[18] = second compound 0.0316 µM, first compound 10 µM
[19] = second compound 0.1 µM, first compound 0.0316 µM
[20] = second compound 0.1 µM, first compound 0.1 µM
[21] = second compound 0.1 µM, first compound 0.316 µM
[22] = second compound 0.1 µM, first compound 1 µM
[23] = second compound 0.1 µM, first compound 3.16 µM
[24] = second compound 0.1 µM, first compound 10 µM
[25] = second compound 0.316 µM, first compound 0.0316 µM
[26] = second compound 0.316 µM, first compound 0.1 µM
[27] = second compound 0.316 µM, first compound 0.316 µM
[28] = second compound 0.316 µM, first compound 1 µM
[29] = second compound 0.316 µM, first compound 3.16 µM
[30] = second compound 0.316 µM, first compound 10 µM
[31] = second compound 1 µM, first compound 0.0316 µM
[32] = second compound 1 µM, first compound 0.1 µM
[33] = second compound 1 µM, first compound 0.316 µM
[34] = second compound 1 µM, first compound 1 µM
[35] = second compound 1 µM, first compound 3.16 µM
[36] = second compound 1 µM, first compound 10 µM
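Also: spheroids exposed to agents for seven days before readout.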

SMILES: C[C@@H](NC(=O)c1ncnc(N)c1Cl)c1ncc(C(=O)Nc2cc(C(F)(F)F)c(Cl)cn2)s1 + C=CC(=O)N1CCN(c2nc(OCC3CCCN3C)nc3c(F)c(-c4nc(N)cc(C)c4C(F)(F)F)c(Cl)cc23)C(C)C1
- pIC50 (second compound 0.00316 µM): > 7.50
- pIC50 (second compound 0.01 µM): > 7.50
- pIC50 (second compound 0.0316 µM): > 7.50
- pIC50 (second compound 0.1 µM): > 7.50
- pIC50 (second compound 0.316 µM): > 7.50
- pIC50 (second compound 1 µM): > 7.50
- viability, T/C [1]: 24.3%
- viability, T/C [2]: 23.5%
- viability, T/C [3]: 23.3%
- viability, T/C [4]: 25.3%
- viability, T/C [5]: 19%
- viability, T/C [6]: 17.7%
- viability, T/C [7]: 14.8%
- viability, T/C [8]: 14.6%
- viability, T/C [9]: 14.2%
- viability, T/C [10]: 14.6%
- viability, T/C [11]: 20%
- viability, T/C [12]: 14%
- viability, T/C [13]: 12%
- viability, T/C [14]: 11.7%
- viability, T/C [15]: 10.3%
- viability, T/C [16]: 10.8%
- viability, T/C [17]: 11.4%
- viability, T/C [18]: 10.2%
- viability, T/C [19]: 13.1%
- viability, T/C [20]: 10.6%
- viability, T/C [21]: 14.1%
- viability, T/C [22]: 10.8%
- viability, T/C [23]: 9.5%
- viability, T/C [24]: 9.83%
- viability, T/C [25]: 10.6%
- viability, T/C [26]: 11.1%
- viability, T/C [27]: 10.8%
- viability, T/C [28]: 10.8%
- viability, T/C [29]: 10.5%
- viability, T/C [30]: 10.7%
- viability, T/C [31]: 10.6%
- viability, T/C [32]: 13%
- viability, T/C [33]: 13.4%
- viability, T/C [34]: 11.6%
- viability, T/C [35]: 10.8%
- viability, T/C [36]: 11.1%

SMILES: Cc1nc(N2CCC3(CC2)COC(C)C3N)c(CO)nc1Sc1ccnc(N)c1Cl (stereo unspecified) + C=CC(=O)N1CCN(c2nc(OCC3CCCN3C)nc3c(F)c(-c4nc(N)cc(C)c4C(F)(F)F)c(Cl)cc23)C(C)C1
- pIC50 (second compound 0.00316 µM): > 7.50
- pIC50 (second compound 0.01 µM): > 7.50
- pIC50 (second compound 0.0316 µM): > 7.50
- pIC50 (second compound 0.1 µM): > 7.50
- pIC50 (second compound 0.316 µM): > 7.50
- pIC50 (second compound 1 µM): > 7.50
- viability, T/C [1]: 11.5%
- viability, T/C [2]: 8.95%
- viability, T/C [3]: 6.72%
- viability, T/C [4]: 5.03%
- viability, T/C [5]: 3.59%
- viability, T/C [6]: 4.75%
- viability, T/C [7]: 12.1%
- viability, T/C [8]: 8.08%
- viability, T/C [9]: 5.96%
- viability, T/C [10]: 4.7%
- viability, T/C [11]: 4.74%
- viability, T/C [12]: 5.17%
- viability, T/C [13]: 9.15%
- viability, T/C [14]: 6.95%
- viability, T/C [15]: 4.4%
- viability, T/C [16]: 3.81%
- viability, T/C [17]: 3.74%
- viability, T/C [18]: 3.64%
- viability, T/C [19]: 8.22%
- viability, T/C [20]: 5.86%
- viability, T/C [21]: 5.7%
- viability, T/C [22]: 3.75%
- viability, T/C [23]: 4.37%
- viability, T/C [24]: 3.87%
- viability, T/C [25]: 7.37%
- viability, T/C [26]: 6.35%
- viability, T/C [27]: 4.21%
- viability, T/C [28]: 4.09%
- viability, T/C [29]: 4.08%
- viability, T/C [30]: 3.28%
- viability, T/C [31]: 7.46%
- viability, T/C [32]: 7.12%
- viability, T/C [33]: 6.04%
- viability, T/C [34]: 4.71%
- viability, T/C [35]: 4.06%
- viability, T/C [36]: 4.08%

SMILES: CCN1CCN(Cc2ccc(Nc3ncc(F)c(-c4cc(F)c5nc(C)n(C(C)C)c5c4)n3)nc2)CC1 + C#Cc1c(F)ccc2cc(O)cc(-c3ncc4c(N5CC6CCC(C5)N6)nc(OCC56CCCN5CC(F)C6)nc4c3F)c12
- pIC50 (second compound 0.0316 µM): < 6.00
- pIC50 (second compound 0.1 µM): < 6.00
- pIC50 (second compound 0.316 µM): < 6.00
- pIC50 (second compound 1 µM): 7.57
- pIC50 (second compound 3.16 µM): > 8.50
- pIC50 (second compound 10 µM): > 8.50
- viability, T/C (second compound 0.0316 µM, first compound 0.00316 µM): 93.1%
- viability, T/C (second compound 0.0316 µM, first compound 0.01 µM): 89%
- viability, T/C [13]: 77.4%
- viability, T/C [14]: 67.5%
- viability, T/C [15]: 66.3%
- viability, T/C [16]: 67.4%
- viability, T/C (second compound 0.1 µM, first compound 0.00316 µM): 90.9%
- viability, T/C (second compound 0.1 µM, first compound 0.01 µM): 80.5%
- viability, T/C [19]: 72.3%
- viability, T/C [20]: 61.7%
- viability, T/C [21]: 57.4%
- viability, T/C [22]: 70.7%
- viability, T/C (second compound 0.316 µM, first compound 0.00316 µM): 92%
- viability, T/C (second compound 0.316 µM, first compound 0.01 µM): 79.3%
- viability, T/C [25]: 67.1%
- viability, T/C [26]: 55.8%
- viability, T/C [27]: 50.3%
- viability, T/C [28]: 61%
- viability, T/C (second compound 1 µM, first compound 0.00316 µM): 62%
- viability, T/C (second compound 1 µM, first compound 0.01 µM): 54.7%
- viability, T/C [31]: 49%
- viability, T/C [32]: 44.5%
- viability, T/C [33]: 45.2%
- viability, T/C [34]: 53.5%
- viability, T/C (second compound 3.16 µM, first compound 0.00316 µM): 39.5%
- viability, T/C (second compound 3.16 µM, first compound 0.01 µM): 34.9%
- viability, T/C (second compound 3.16 µM, first compound 0.0316 µM): 28.4%
- viability, T/C (second compound 3.16 µM, first compound 0.1 µM): 26.1%
- viability, T/C (second compound 3.16 µM, first compound 0.316 µM): 30.9%
- viability, T/C (second compound 3.16 µM, first compound 1 µM): 38.9%
- viability, T/C (second compound 10 µM, first compound 0.00316 µM): 14.3%
- viability, T/C (second compound 10 µM, first compound 0.01 µM): 15.6%
- viability, T/C (second compound 10 µM, first compound 0.0316 µM): 14.1%
- viability, T/C (second compound 10 µM, first compound 0.1 µM): 19%
- viability, T/C (second compound 10 µM, first compound 0.316 µM): 22.1%
- viability, T/C (second compound 10 µM, first compound 1 µM): 22.2%
